Assay results reported in patent US7129398B2, “Reversible male sterility in transgenic plants by expression of a GA-insensitive mutant protein, gai” (Monsanto Technology LLC, priority 2001, dated 2006).

Tested on: male sterile transgenic plants (pMON42169, TA29-gai)
Assay: Fertility restoration of gai male sterile transgenic tobacco plants by chemical spray
Type: in vivo, Nicotiana tabacum
Conditions: for restoration of male fertility: aqueous 0.25% Sylgard 309; for Seed weight: mean of 5 seed sets ± SE
Experimental: Kanamycin resistant F1 seedlings were transferred to soil and grown to flowering stage. After male sterility in the first few flowers was observed, plants from each lines were divided into four groups to receive different treatments every other day. One group received 15 mg of kinetin (a synthetic cytokinin) (Sigma) per plant, while the other two groups received either 10 mg of GA3 (Sigma) or 10 mg of TDZ (Sigma) per plant. The chemicals are in an aqueous solution containing 0.25% of Sylgard 309 surfactant (Willbur-Ellis, Fresno, Calif.) and the last group received surfactant only. The applications continued for two weeks. In another experiment, F1 plants from several male sterile transgenic lines were selected based on resistance to kanamycin and grown to flowering to verify the inheritance of the male sterile phenotype. Each plant was then sprayed with a solution containing 15 mg of kinetin every other day for two weeks. The plants continued to develop male sterile flowers until 10 days after the first application of kinetin. At 10 days post-application, the flowers that developed were male fertile. Flowers from treated plants began visibly shedding pollen whereas untreated flowers remained sterile. Under greenhouse growth conditions, the transition from stage −3 to stage 12 for a tobacco floral bud occurred in approximately 10 days. It appeared that for effective fertility restoration, kinetin needed to be applied prior to stage −2, which coincided with the onset of the TA29 promoter.

[1] = F1 male sterile transgenic tobacco, 10 mg per plant every other day for two weeks

SMILES	restoration of anther development [1]	restoration of male fertility [1]	persistence of production of male fertile flowers post-application (15 mg per plant every other day for two weeks)	time after first application until developing flowers were male fertile (15 mg per plant every other day for two weeks, F1 male sterile transgenic tobacco lines)	restoration of male fertility (F1 male sterile transgenic tobacco, 15 mg per plant every other day for two weeks)	Seed weight (event 782 (S): selfing after fertility restoration)	Seed weight (event 790 (S): selfing after fertility restoration)	morphology and seed set of restored flowers (kinetin-restored flowers of male sterile transgenic tobacco)	difference in seed weight, selfed seed of restored flowers vs crossed seed of sterile flowers and selfed seed of wild-type flowers (lines 788 and 790)
C=C1C[C@]23C[C@@]1(O)CC[C@H]2[C@@]12C=C[C@H](O)[C@@](C)(C(=O)O1)[C@H]2[C@@H]3C(=O)O [GA3]	did not restore the anther development	remained male sterile	–	–	–	–	–	–	–
O=C(Nc1ccccc1)Nc1cnns1 [TDZ]	–	did not restore the fertility	–	–	–	–	–	–	–
c1coc(CNc2ncnc3[nH]cnc23)c1 [kinetin]	–	–	11 days	10 days	shed pollen and set seeds	113.0 ± 18.9 mg	110.2 ± 13.5 mg	morphologically normal but also had typical seed sets	no significant difference
